# Experimental data published in patent publication US20060241174A1, “Vitamin E tocotrienols inhibition of intracellularly obligate pathogen Chlamydia and methods of use” (priority 2005, published 2006).
# How the values were obtained:
# [1] = system: tumors; conditions: background statement, no source given; cited from earlier work
# [2] = system: C. trachomatis serovar K; test: Inclusion count by immunofluorescence in C. trachomatis-infected mouse macrophages (J774A.1) treated with delta tocotrienol; format: cell-based, Chlamydia trachomatis
# Procedure: FIG. 3 illustrates Chlamydia-infected mouse macrophage cells treated with delta tocotrienol (400× magnification). Mouse macrophages (J774A. 1 cells) were pretreated with a 30 μmol/L concentration of delta tocotrienol in culture for 4 hours and infected with C. trachomatis SVK for 48 hours. Arrows indicate inclusions. Cells were viewed and digitally documented using a Zeiss LSM 510 Meta Confocal System at a magnification of 400×. White arrows point out characteristic inclusions (Scale indicates 50 μm).
# FIG. 4 illustrates Chlamydia-infected mouse macrophage cells treated with delta tocotrienol (630× magnification). White arrows point to representative cells. Note numerous very small, unfused inclusions in A (Scale indicates 50 μm).
# Chlamydial Strains: Stocks of C. trachomatis serovar K/VR887 were grown in J774A.1 cells without centrifuge assistance. Infected cells were lysed, this stock aliquoted and frozen down in SPG freeze medium (75.0 g sucrose, 0.52 g potassium phosphate, 1.22 g sodium phosphate dibasic, 0.72 g glutamic acid, diluted in […] ddH2O). These aliquots were stored in liquid N2 or at −80° C., and later thawed for use to infect monolayers.
# Cell Lines Used: Mouse macrophages (J774A.1), human mammary tumor cells (MCF-7), and human epithelial cells (Hep-2), were obtained from the American Type Culture collection. Human mammary tumor cells (TMX2-28) were a kind gift from Dr. Arcaro, and human B-lymphocytes (JY) were a kind gift from Dr. Eric Martz. All cell lines were maintained in Richter's improved MEM insulin (IMEMZO, Irvine Scientific, Santa Ana, Calif.) with 5% fetal bovine serum (FBS, Atlanta Biologicals, Norcross, Ga.). Cells were grown to 80% confluence on 12 mm coverslips in 12 well plates (Becton Dickinson Labware, Franklin Lakes, N.J.). A dilution of 1:125 or 1:200 of the C. trachomatis serovar K stock was made using the standard complete cycloheximide overlay media (Bio-Whittaker, Walkersville, Md.) containing 10% FBS, and 1× L-glutamine (CCOM). This was layered onto the coverslip containing monolayers, and incubated for 24-48 hours at 37° C. with 5% CO2. Coverslips with the cell monolayers were harvested, rinsed with phosphate buffered saline (PBS), fixed with 70% cold methanol, stored and subsequently immunostained.
# Delta Tocotrienol Treatment: A stock of delta tocotrienol (98% purity, American River Nutrition, Hadley, Mass.) was diluted to 1 mg/1 ml in absolute ethanol [EtOH]. Confluent monolayers of J774A.1, MCF-7, TMX2-28, JY, or Hep-2 cells were treated with 5, 10, 20, 30, or 40 μmol/L concentrations of delta tocotrienol. Treatment occurred 5 hours prior to infection with C. trachomatis serovar K, at point of infection, or three hours post-infection.
# Immunostaining: Briefly, infected cells were immunostained with a 1:2 dilution of guinea pig anti-chlamydia polyclonal antibody (Biomeda, Foster City, Calif.), or a 1:125 dilution of rabbit anti-chlamydia EB whole serum for 1 hour at 37° C. Following PBS rinses X3, the bound antibodies were detected using a 1:100 dilution of FITC-conjugated donkey anti-guinea pig or a 1:125 dilution of TRITC-conjugated goat anti-rabbit secondary antibodies (Jackson ImmunoResearch, West Grove, Pa.). Following incubation for 1 hour at room temperature and 3 rinses with PBS, coverslips were mounted onto slides using Fluoromount-G (Southern Biotechnology Associates Inc., Birmingham, Ala.) or Vectashield® Mounting Medium with DAPI (Vector Laboratories, Inc., Burlingame, Calif.), and were then sealed. Initially, slides were examined at 400× using a Nikon LABPHOT-2. For photography, slides were assessed in the Massachusetts Central Microscopy Facility using a Zeiss LSM 510 Meta Confocal System and 630× magnification. Images were captured, and as relevant, merged using the Confocal Assistant™ version 4.02 Image Processing Software.
# Counts on all coverslips with experimental conditions as in FIG. 3 and 4 were done for the average of 10 fields of view. […]
# [3] = First Infection, J774A.1, 30 μmol/L
# [4] = Second Infection, J774A.1, 30 μmol/L
# [5] = Third Infection, J774A.1, 30 μmol/L
substance,measurement,setting,value
delta tocotrienol,reduction of tumors,[1],≤ 70%
same,morphology of chlamydial inclusions (FIG. 4),"[2]; 20-40 μmol/L delta tocotrienol, Chlamydia-specific immunofluorescence staining","immature, small, and less round"
same,"Inclusions (per field of view), Small (≦10 μm)",[2]; [3],4.5 per field of view
same,"Inclusions (per field of view), Total",[2]; [3],5.2 per field of view
same,Inclusions Total/Cell,[2]; [3],0.058
same,"Inclusions (per field of view), Large (15-20 μm)","[2]; First Infection, J774A.1, 30 μmol/L delta tocotrienol, average of 10 fields of view",0.7 per field of view
same,Percent Inhibition,"[2]; First Infection, treated vs control, J774A.1, 30 μmol/L",52.3%
same,"large, mature inclusions (FIG. 3)","[2]; J774A.1, 30 μmol/L pretreatment, 48 hours infection, 400× magnification","no evidence of large, mature inclusions"
same,size of large inclusions in the tocotrienol-treated cells,"[2]; J774A.1, control cells 20 μm",10-15 μm
same,inclusions thinner than in control cells (Z-axis),"[2]; J774A.1, optical sections, treated vs control",3 fold
same,inclusions smaller than in control cells (X-Y axes),"[2]; J774A.1, treated vs control",2 to 3 fold
same,"Inclusions (per field of view), Large (15-20 μm)","[2]; Second Infection (supernatant transfer to uninfected treated cells), J774A.1, 30 μmol/L",1.4 per field of view
same,"Inclusions (per field of view), Small (≦10 μm)",[2]; [4],0.6 per field of view
same,"Inclusions (per field of view), Total",[2]; [4],2.0 per field of view
same,Inclusions Total/Cell,[2]; [4],0.032
same,Percent Inhibition,"[2]; Second Infection, treated vs control, J774A.1, 30 μmol/L",43.8%
same,"Inclusions (per field of view), Large (15-20 μm)",[2]; [5],0.7 per field of view
same,"Inclusions (per field of view), Small (≦10 μm)",[2]; [5],1.1 per field of view
same,"Inclusions (per field of view), Total",[2]; [5],1.8 per field of view
same,Inclusions Total/Cell,[2]; [5],0.016
same,Percent Inhibition,"[2]; Third Infection, treated vs control, J774A.1, 30 μmol/L",39.0%
same,chlamydial inclusion volume smaller than control,[2]; calculated (2×3 to 3×3),6-9 fold
same,percent inhibition of inclusion formation in tocotrienol-treated as compared to untreated cells,"[2]; summary of Table 1, 30 μmol/L",40-50%
same,number of chlamydial inclusions (immunofluorescence staining),"[2]; tocotrienol-treated cells vs control, FIG. 3, Table 1",decreased significantly
